Counter-ions that a name gives are not always drawn. Like-named read-outs stand apart in the source and are kept apart here.
Test system: HBV rcDNA in HepDE19 cells
Experiment: HepDE19 assay with bDNA quantitation of HBV rcDNA
Assay type: cell-based, hepatitis B virus (HBV)
Details: Hepatitis B virus, HepDE19, 168 h
Summary of the method: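 HepG2-derived HepDE19 cells, switched to Tet-free medium, were exposed 7 days at 37 °C to compound (8-point ½-log series from 25 μM, 0.5% DMSO). HBV rcDNA measured by bDNA assay with HBV-specific probes; EC50/EC90 by 4-parameter fit. CC50 from CellTiter-Glo ATP on replicate plates after 4 days.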

[1] = read-out: DE-19 bDNA EC50, HepDE19 cells, 7 day incubation, rcDNA by Quantigene 2.0 bDNA assay
[2] = HepDE19 cells, 7 day incubation, rcDNA by Quantigene 2.0 bDNA assay, read-out: DE-19 bDNA EC50

Structure (SMILES): CNC(=O)N[C@H]1CCOc2c(C(=O)Nc3ccc(F)c(F)c3)ccc(Cl)c21 [Compound 126, (S)-5-chloro-N-(3,4-difluorophenyl)-4-(3-methylureido)chromane-8-carboxamide]
- EC50 [1]: 0.74 µM

Structure (SMILES): COC(=O)N[C@H]1CCOc2c(C(=O)Nc3ccc(F)c(C(F)(F)F)c3)cccc21 [Compound 44, Methyl (S)-(8-((4-fluoro-3-(trifluoromethyl)phenyl)carbamoyl)chroman-4-yl)carbamate]
- EC50 [2]: 3.5 µM

Structure (SMILES): O=C(N[C@H]1CCSc2c(C(=O)Nc3ccc(F)c(F)c3)ccc(F)c21)OCc1ccccn1 [Compound 169, Pyridin-2-ylmethyl (S)-(8-((3,4-difluorophenyl)carbamoyl)-5-fluorothiochroman-4-yl)carbamate hydrochloride]
- EC50 [1]: 5.3 µM

Structure (SMILES): O=C(N[C@H]1CCOc2c(C(=O)Nc3ccc(F)c(F)c3)cccc21)OCc1cc(Cl)ccn1 [Compound 82, (4-Chloropyridin-2-yl)methyl (S)-(8-((3,4-difluorophenyl)carbamoyl)chroman-4-yl)carbamate hydrochloride]
- EC50 [1]: 3.2 µM

Structure (SMILES): COC(=O)N[C@H]1CCOc2c(C(=O)Nc3ccc(F)c(F)c3)cccc21 [Compound 8, methyl (S)-(8-((3,4-difluorophenyl)carbamoyl)chroman-4-yl)carbamate]
- EC50 [1]: 2.3 µM

Structure (SMILES): COc1ccnc(COC(=O)N[C@H]2CCOc3c(C(=O)Nc4ccc(F)c(F)c4)cccc32)c1 [Compound 80, (4-Methoxypyridin-2-yl)methyl (S)-(8-((3,4-difluorophenyl)carbamoyl)chroman-4-yl)carbamate hydrochloride]
- EC50 [1]: 2.7 µM

Structure (SMILES): COC(=O)N[C@H]1CCCc2c(C(=O)Nc3ccc(F)c(F)c3)cccc21 [Compound 184, Methyl (S)-(5-((3,4-difluorophenyl)carbamoyl)-1,2,3,4-tetrahydronaphthalen-1-yl)carbamate]
- EC50 [2]: 8.7 µM

Structure (SMILES): O=C(N[C@H]1CCOc2c(C(=O)Nc3ccc(F)c(F)c3)cccc21)OCc1cnccn1 [Compound 81, Pyrazin-2-ylmethyl (S)-(8-((3,4-difluorophenyl)carbamoyl)chroman-4-yl)carbamate]
- EC50 [2]: 2.4 µM

Structure (SMILES): COC(=O)N[C@@H]1CCOc2c(C(=O)Nc3ccc(F)c(F)c3)ccc(F)c21 [Compound 39, methyl (R)-(8-((3,4-difluorophenyl)carbamoyl)-5-fluorochroman-4-yl)carbamate]
- EC50 [2]: 8.5 µM

Structure (SMILES): O=C(N[C@@H]1CCSc2c(C(=O)Nc3ccc(F)c(F)c3)ccc(F)c21)OCc1ccccn1 [Compound 170, Pyridin-2-ylmethyl (R)-(8-((3,4-difluorophenyl)carbamoyl)-5-fluorothiochroman-4-yl)carbamate hydrochloride]
- EC50 [1]: 21 µM

Structure (SMILES): C[C@@H](OC1CCOc2c(C(=O)Nc3ccc(F)c(F)c3)cccc21)c1ccncc1 (stereo partly drawn) [Compound 96, N-(3,4-difluorophenyl)-4-((R)-1-(pyridin-4-yl)ethoxy)chromane-8-carboxamide]
- EC50 [2]: 15 µM

Structure (SMILES): CNC(=O)N1CCC(COC(=O)N[C@H]2CCOc3c(C(=O)Nc4ccc(F)c(Cl)c4)ccc(F)c32)CC1 [Compound 165, (1-(Methylcarbamoyl)piperidin-4-yl)methyl (S)-(8-((3-chloro-4-fluorophenyl)carbamoyl)-5-fluorochroman-4-yl)carbamate]
- EC50 [1]: 0.35 µM

Structure (SMILES): Cc1cc(NC(=O)c2ccc(F)c3c2OCC[C@@H]3NC(=O)OCc2cnccn2)ccc1F [Compound 114, Pyrazin-2-ylmethyl (S)-(5-fluoro-8-((4-fluoro-3-methylphenyl)carbamoyl)chroman-4-yl)carbamate]
- EC50 [2]: 0.5 µM

Structure (SMILES): CC(C)NS(=O)(=O)N[C@H]1CCOc2c(C(=O)Nc3ccc(F)c(F)c3)cccc21 (stereo in doubt) [Compound 15]
- EC50 [2]: 9.7 µM

Structure (SMILES): O=C(N[C@H]1CCOc2c(C(=O)Nc3ccc(F)c(F)c3)cccc21)OCc1ccccn1 [Compound 27, Pyridin-2-ylmethyl-(8-((3,4-difluorophenyl)carbamoyl)chroman-4-yl)carbamate]
- EC50 [2]: 2.5 µM
